# Reference: patent US12558393B2, “Compositions and methods of BDNF activation” (VDF Futureceuticals, Inc., priority 2013, dated 2026)
# System: BDNF plasma levels
# Assay: Plasma BDNF by ELISA in healthy fasted subjects after a single oral dose
# Type: in vivo, human
# Settings: 50 mg single dose, five healthy subjects (FIG. 2)
smiles,measurement,value
O=C(/C=C/c1ccc(O)c(O)c1)O[C@@H]1C[C@](O)(C(=O)O)C[C@@H](O)[C@H]1O [chlorogenic acid],"blood level of BDNF, increase",did not increase blood level of BDNF in a statistically significant manner
